Experimental data taken from US10913738B2 (BRISTOL-MYERS SQUIBB COMPANY, priority 2017, dated 2021).
Like-named read-outs stand apart in the source and are kept apart here.

Columns and labels:
[1] = target: T1, His-GST-TVMV-hRIPK1(1-324) (Homo sapiens, UniProt Q13546); test: RIPK1 HTRF Binding Assay
T1 construct: The coding region of human RIPK1(1-324) flanked by NdeI site at 5′ end; made in house; host or cells: Spodoptera frugiperda (Sf9) insect cells, baculovirus
T1 sequence (Q13546 1-324): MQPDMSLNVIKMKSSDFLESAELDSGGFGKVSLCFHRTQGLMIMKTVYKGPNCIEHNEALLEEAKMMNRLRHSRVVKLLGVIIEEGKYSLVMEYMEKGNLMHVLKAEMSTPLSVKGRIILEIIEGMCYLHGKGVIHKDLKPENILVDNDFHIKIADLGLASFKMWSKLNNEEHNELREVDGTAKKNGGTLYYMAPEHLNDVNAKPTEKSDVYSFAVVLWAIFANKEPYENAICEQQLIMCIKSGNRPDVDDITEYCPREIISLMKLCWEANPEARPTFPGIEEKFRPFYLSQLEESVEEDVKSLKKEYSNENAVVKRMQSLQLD

[2] = tested on: MLKL phosphorylation in HT29-L23 human colorectal adenocarcinoma cells; test: MLKL Phosphorylation High-Content Assay; format: cell-based; details: Homo sapiens
Procedure, shortened: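 Cells incubated six hours at 37° C., then phospho-MLKL (S358) immunostained overnight at 4° C. and imaged by high-content microscopy. Phosphorylation quantified as mean circ-ring average intensity ratio; IC50 and Ymax from 4-parameter logistic fits.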

[3] = x marks IC50 class 20-200 nM, read-out: RIPK1 HTRF binding 20-200 nM
[4] = x marks IC50 class >200 nM, read-out: pMLKL cell activity >200 nM
[5] = x marks IC50 class 20-200 nM, read-out: pMLKL cell activity 20-200 nM
[6] = x marks IC50 class <20 nM, read-out: RIPK1 HTRF binding <20 nM
[7] = x marks IC50 class <20 nM, read-out: pMLKL cell activity <20 nM

| Compound | IC50 [1, 3] [nM] | IC50 [2, 4] [nM] | IC50 [2, 5] [nM] | IC50 [1, 6] [nM] | IC50 [2, 7] [nM] |
| --- | --- | --- | --- | --- | --- |
| COc1nc(C)c(-c2ccn3nc(N)nc3c2)cc1C(=O)NCCc1cccc(OC(F)(F)F)c1 [Example 198, 5-{2-amino-[1,2,4]triazolo[1,5-a]pyridin-7-yl}-2-methoxy-6-methyl-N-{2-[3-(trifluoromethoxy)phenyl]ethyl}pyridine-3-carboxamide] | 20 to 200 | > 200 |  |  |  |
| COc1nc(C)c(-c2ccn3nc(N)nc3c2)cc1C(=O)NCc1cccc(C(F)(F)F)c1 [Example 199, 5-{2-amino-[1,2,4]triazolo[1,5-a]pyridin-7-yl}-2-methoxy-6-methyl-N-{[3-(trifluoromethyl)phenyl]methyl}pyridine-3-carboxamide] | 20 to 200 | > 200 |  |  |  |
| COc1nc(C)c(-c2ccn3nc(N)nc3c2)cc1C(=O)NCc1cccc(OCC2CC2)c1 [Example 200, 5-{2-amino-[1,2,4]triazolo[1,5-a]pyridin-7-yl}-N-{[3-(cyclopropylmethoxy)phenyl]methyl}-2-methoxy-6-methylpyridine-3-carboxamide] | 20 to 200 |  | 20 to 200 |  |  |
| COc1nc(C)c(-c2ccn3nc(N)nc3c2)cc1C(=O)NCc1cc(OC(F)(F)F)ccc1F [Example 201, 5-{2-amino-[1,2,4]triazolo[1,5-a]pyridin-7-yl}-N-{[2-fluoro-5-(trifluoromethoxy)phenyl]methyl}-2-methoxy-6-methylpyridine-3-carboxamide] |  |  | 20 to 200 | < 20 |  |
| COc1nc(C)c(-c2ccn3nc(N)nc3c2)cc1C(=O)NCc1c(F)cc(F)cc1OCC1CCCC1 [Example 202, 5-{2-amino-[1,2,4]triazolo[1,5-a]pyridin-7-yl}-N-{[2-(cyclopentylmethoxy)-4,6-difluorophenyl]methyl}-2-methoxy-6-methylpyridine-3-carboxamide] |  |  | 20 to 200 | < 20 |  |
| COc1nc(C)c(-c2ccn3nc(N)nc3c2)cc1C(=O)NCc1ncccc1OCC1CCCC1 [Example 203, 5-{2-amino-[1,2,4]triazolo[1,5-a]pyridine-7-yl}-N-{[3-(cyclopentylmethoxy)pyridin-2-yl]methyl}-2-methoxy-6-methylpyridine-3-carboxamide] |  |  | 20 to 200 | < 20 |  |
| COc1nc(C)c(-c2ccn3nc(N)nc3c2)cc1C(=O)NCc1cccc(OC(F)F)c1 [Example 204, 5-{2-amino-[1,2,4]triazolo[1,5-a]pyridin-7-yl}-N-{[3-(difluoromethoxy)phenyl]methyl}-2-methoxy-6-methylpyridine-3-carboxamide] | 20 to 200 | > 200 |  |  |  |
| COc1nc(C)c(-c2ccn3nc(N)nc3c2)cc1C(=O)NC(C)c1ccccc1OC(F)(F)F (stereo not shown) [Example 205, 5-{2-amino-[1,2,4]triazolo[1,5-a]pyridin-7-yl}-2-methoxy-6-methyl-N-{1-[2-(trifluoromethoxy)phenyl]ethyl}pyridine-3-carboxamide] |  |  |  | < 20 | < 20 |
| COc1nc(C)c(-c2ccn3nc(N)nc3c2)cc1C(=O)NCc1cc(F)ccc1OCC1CCCC1 [Example 206, 5-{2-amino-[1,2,4]triazolo[1,5-a]pyridin-7-yl}-N-{[2-(cyclopentylmethoxy)-5-fluorophenyl]methyl}-2-methoxy-6-methylpyridine-3-carboxamide] |  |  | 20 to 200 | < 20 |  |
| COc1nc(C)c(-c2ccn3nc(N)nc3c2)cc1C(=O)NCc1ccccc1OCC1CCCC1 [Example 207, 5-{2-amino-[1,2,4]triazolo[1,5-a]pyridin-7-yl}-N-{[2-(cyclopentylmethoxy)phenyl]methyl}-2-methoxy-6-methylpyridine-3-carboxamide] |  |  |  | < 20 | < 20 |
| COc1nc(C)c(-c2ccn3nc(N)nc3c2)cc1C(=O)NCc1cc(F)cc(F)c1OCC1CCCC1 [Example 208, 5-{2-amino-[1,2,4]triazolo[1,5-a]pyridin-7-yl}-N-{[2-(cyclopentylmethoxy)-3,5-difluorophenyl]methyl}-2-methoxy-6-methylpyridine-3-carboxamide] |  |  | 20 to 200 | < 20 |  |
| COc1nc(C)c(-c2ccn3nc(N)nc3c2)cc1C(=O)NCc1cccnc1OCC1CCC1 [Example 209, 5-{2-amino-[1,2,4]triazolo[1,5-a]pyridin-7-yl}-N-{[2-(cyclobutylmethoxy)pyridin-3-yl]methyl}-2-methoxy-6-methylpyridine-3-carboxamide] |  |  | 20 to 200 | < 20 |  |
| COc1nc(C)c(-c2ccn3nc(N)nc3c2)cc1C(=O)NCc1cccc(OC(F)(F)F)c1 [Example 210, 5-{2-amino-[1,2,4]triazolo[1,5-a]pyridin-7-yl}-2-methoxy-6-methyl-N-{[3-(trifluoromethoxy)phenyl]methyl}pyridine-3-carboxamide] |  |  | 20 to 200 | < 20 |  |
| COc1nc(C)c(-c2ccn3nc(N)nc3c2)cc1C(=O)NCc1ccccc1OC(F)(F)F [Example 211, 5-{2-amino-[1,2,4]triazolo[1,5-a]pyridin-7-yl}-2-methoxy-6-methyl-N-{[2-(trifluoromethoxy)phenyl]methyl}pyridine-3-carboxamide] |  |  | 20 to 200 | < 20 |  |
| COc1nc(C)c(-c2ccn3nc(N)nc3c2)cc1C(=O)NCc1ccccc1OC(C)C [Example 212, 5-{2-amino-[1,2,4]triazolo[1,5-a]pyridin-7-yl}-2-methoxy-6-methyl-N-{[2-(propan-2-yloxy)phenyl]methyl}pyridine-3-carboxamide] |  |  |  | < 20 | < 20 |
| COc1nc(C)c(-c2ccn3nc(N)nc3c2)cc1C(=O)NCc1ncccc1OC1CCCC1 [Example 213, 5-{2-amino-[1,2,4]triazolo[1,5-a]pyridin-7-yl}-N-{[3-(cyclopentyloxy)pyridin-2-yl]methyl}-2-methoxy-6-methylpyridine-3-carboxamide] |  |  |  | < 20 | < 20 |
| COc1nc(C)c(-c2ccn3nc(N)nc3c2)cc1C(=O)NCc1c(F)cccc1OCC1CCC1 [Example 214, 5-{2-amino-[1,2,4]triazolo[1,5-a]pyridin-7-yl}-N-{[2-(cyclobutylmethoxy)-6-fluorophenyl]methyl}-2-methoxy-6-methylpyridine-3-carboxamide] |  |  |  | < 20 | < 20 |
| COc1nc(C)c(-c2ccn3nc(N)nc3c2)cc1C(=O)NCc1c(F)cccc1OCC1CC1 [Example 215, 5-{2-amino-[1,2,4]triazolo[1,5-a]pyridin-7-yl}-N-{[2-(cyclopropylmethoxy)-6-fluorophenyl]methyl}-2-methoxy-6-methylpyridine-3-carboxamide] |  |  |  | < 20 | < 20 |
| COc1nc(C)c(-c2ccn3nc(N)nc3c2)cc1C(=O)NCc1cc(F)ccc1OC1CCCC1 [Example 216, 5-{2-amino-[1,2,4]triazolo[1,5-a]pyridin-7-yl}-N-{[2-(cyclopentyloxy)-5-fluorophenyl]methyl}-2-methoxy-6-methylpyridine-3-carboxamide] |  |  |  | < 20 | < 20 |
| COc1nc(C)c(-c2ccn3nc(N)nc3c2)cc1C(=O)NCc1c(F)cccc1OC1CCCC1 [Example 217, 5-{2-amino-[1,2,4]triazolo[1,5-a]pyridin-7-yl}-N-{[2-(cyclopentyloxy)-6-fluorophenyl]methyl}-2-methoxy-6-methylpyridine-3-carboxamide] |  |  | 20 to 200 | < 20 |  |
